Results as given in paper PMC11714206, “Massively Parallel Screening of Toll/Interleukin‐1 Receptor (TIR)‐Derived Peptides Reveals Multiple Toll‐Like Receptors (TLRs)‐Targeting Immunomodulatory Peptides” (Advanced Science, 2024).
Several values for one entry are separate records, joined by “and”; a condition that tells them apart may be missing. Equal values may be shown once. Each block holds one sequence with its values, some of them ahead of it.

Target: T1, MyD88^TIR (Homo sapiens, UniProt Q99836)
T1 construct: MyD88 (residues 148–296); 6xHis; made in house; host or cells: E. coli BL21 (DE3)
Assay: T‐Surf phage library (P8 and P3) selection against MyD88^TIR, four rounds, NGS read counts
Format: binding
Conditions: for P8_MyD88 Rank (after) / P8_MyD88 Rank (before): P8 library; for P3_MyD88 Rank (after) / P3_MyD88 Rank (before): P3 library; for Population: 4th round of selection against MyD88 TIR, share of NGS reads
Method in brief: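 P8 and P3 T‐Surf libraries panned against plate-coated TIR domains (5 µg mL^−1), 1 h binding at RT, acid elution and TG1/helper-phage amplification per round. After four rounds, pools were PCR-barcoded and sequenced (NovaSeq, 100 bp paired-end, Phred ≥30); peptides ranked by read counts.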

[1] = P8_MyD88: rank by NGS read count after grouping
[2] = P8_MyD88: rank by NGS read count before grouping
[3] = P8_MyD88: rank by count after grouping
[4] = P8_MyD88: rank by count before grouping
[5] = selection against MyD88, rank by count after grouping
[6] = selection against MyD88, rank by count before grouping
[7] = 4R selection against MyD88, rank after grouping
[8] = 4R selection against MyD88, rank before grouping
[9] = P3_MyD88: rank by count after grouping
[10] = P3_MyD88: rank by count before grouping
[11] = selection against MyD88 TIR, rank by count after grouping
[12] = selection against MyD88 TIR, rank by count before grouping
[13] = selection against MyD88, rank after grouping
[14] = selection against MyD88, rank before grouping
[15] = P3_MyD88 pool: P3 T-Surf phage library
[16] = P8_MyD88 pool: P8 T-Surf phage library

T1 sequence (Q99836 148-296): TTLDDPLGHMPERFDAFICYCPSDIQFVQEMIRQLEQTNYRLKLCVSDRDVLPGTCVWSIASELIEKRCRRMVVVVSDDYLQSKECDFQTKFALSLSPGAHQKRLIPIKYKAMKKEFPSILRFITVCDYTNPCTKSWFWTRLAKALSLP

Sequence: DPQERGCQYQRLVGML
Rank (after) [1]: 902
Rank (before) [2]: 3019

Sequence: WLLDQLDKILEAHGTT
P8_MyD88 Rank (after) [5]: 693
P8_MyD88 Rank (before) [6]: 1380

Sequence: AWVWEYLLPNLVGPAG
P8_MyD88 Rank (after) [7]: 668
P8_MyD88 Rank (before) [8]: 2317

Sequence: YTALTYSGFHTFRGND
P3_MyD88 Rank (after) [7]: 645
P3_MyD88 Rank (before) [8]: 1641

Sequence: DPQDLDLFYERLVRLF
P8_MyD88 Rank (after) [11]: 261
P8_MyD88 Rank (before) [12]: 2737

Sequence: PQVVACFFQRLESMIL
Rank (after) [1]: 871
Rank (before) [2]: 3403

Sequence: GFLYHAFAREGIKIFM
Rank (after) [9]: 124
Rank (before) [10]: 1793

Sequence: SLRQNLVSNLLEEFKR
Rank (after) [9]: 480
Rank (before) [10]: 3075

Sequence: LGYHWIDWEDFVGIEN
Rank (after) [1]: 919
Rank (before) [2]: 3280

Sequence: AVVRETQKIQPQRKNA
Rank (after) [9]: 466
Rank (before) [10]: 1885

Sequence: DTKLKKGESIAPALMR
P3_MyD88 Rank (after) [5]: 704
P3_MyD88 Rank (before) [6]: 2101

Sequence: NYASSPWALDELVKIF
P8_MyD88 Rank (after) [11]: 197
P8_MyD88 Rank (before) [12]: 295

Sequence: YTALINSGFHTFRDNH
P3_MyD88 Rank (after) [11]: 273
P3_MyD88 Rank (before) [12]: 1637

Sequence: YAASPWWFDELVHILW
P8_MyD88 Rank (after) [5]: 678
P8_MyD88 Rank (before) [6]: 1722

Sequence: SGFREGLWRLLELSKK
Population [15]: 0.00291%

Sequence: YELDFSHFWLFVGQAP
Rank (after) [1]: 1008
Rank (before) [2]: 1929

Sequence: ELDFSHFWLFDGHAGGEA
Population [16]: 0.02%

Sequence: YPQDLDWFYERLVSQF
P8_MyD88 Rank (after) [5]: 719
P8_MyD88 Rank (before) [6]: 2097

Sequence: SSFLQGLWRLLELSKK
P3_MyD88 Rank (after) [13]: 534
P3_MyD88 Rank (before) [14]: 3122

Sequence: RLLKWKEALHQFHSLVG
P3_MyD88 Rank (after) [11]: 277
P3_MyD88 Rank (before) [12]: 2580

Sequence: SRDYASSPWALDELVL
Rank (after) [9]: 146
Rank (before) [10]: 3095

Sequence: VQWDDPWFWDKLAY
P8_MyD88 Rank (after) [7]: 623
P8_MyD88 Rank (before) [8]: 2231

Sequence: AVAHEISNKMKIFATI
P3_MyD88 Rank (after) [11]: 270
P3_MyD88 Rank (before) [12]: 1888

Sequence: LKVESCRQALEKTGKL
Rank (after) [9]: 181
Rank (before) [10]: 2473

Sequence: DHHLDLPRGKPIKREILG
P3_MyD88 Rank (after) [11]: 244
P3_MyD88 Rank (before) [12]: 2040

Sequence: EWMREQLRPPLKERLP
Rank (after) [9]: 421
Rank (before) [10]: 2179

Sequence: DPQDLQWFYERLVSLMASGI
P8_MyD88 Rank (after) [13]: 494
P8_MyD88 Rank (before) [14]: 2920

Sequence: WALDELLKILYARELF
P8_MyD88 Rank (after) [11]: 222
P8_MyD88 Rank (before) [12]: 518

Sequence: IDDDHLTYLVRLLQIA
P8_MyD88 Rank (after) [5]: 761
P8_MyD88 Rank (before) [6]: 3637

Sequence: DPQELEWFYERLVSLF
Rank (after) [3]: 163
Rank (before) [4]: 745

Sequence: YYFTIGIAKRKLSRK
P8_MyD88 Rank (after) [5]: 692
P8_MyD88 Rank (before) [6]: 1687

Sequence: KEVEGWRDALTKVACR
Rank (after) [9]: 109
Rank (before) [10]: 1305

Sequence: VANIGLIGSILWALK
Rank (after) [1]: 942
Rank (before) [2]: 2163

Sequence: DPQDLDWFYERQVRLF
Rank (after) [1]: 915
Rank (before) [2]: 2794

Sequence: DPHDLVWFYERLVSLF
P8_MyD88 Rank (after) [11]: 230
P8_MyD88 Rank (before) [12]: 2631

Sequence: DHHLDLSRGKSIKPDILG
Rank (after) [9]: 435
Rank (before) [10]: 2053

Sequence: WALNELVEIYQAYKEL
P8_MyD88 Rank (after) [11]: 273
P8_MyD88 Rank (before) [12]: 521

Sequence: PQDLEWFYERMVGLIL
Rank (after) [1]: 879
Rank (before) [2]: 3429

Sequence: YLMWPQEEEEIPLFWH
P8_MyD88 Rank (after) [11]: 257
P8_MyD88 Rank (before) [12]: 447

The next lines start with the values.

Rank (after) [3]: 183
Rank (before) [4]: 466
Sequence: DPQDLDWFYERLVSQM

Rank (after) [9]: 133
Rank (before) [10]: 734
Sequence: SENYATSPWALKERLP

P3_MyD88 Rank (after) [11]: 226
P3_MyD88 Rank (before) [12]: 2893
Sequence: QEVEGWRDALTKVASM

Rank (after) [3]: 463
Rank (before) [4]: 1949
Sequence: YELDFSHFSLFEGQAT

P8_MyD88 Rank (after) [11]: 269
P8_MyD88 Rank (before) [12]: 2858
Sequence: DPQDLDWFYERLFSQT

P3_MyD88 Rank (after) [5]: 726
P3_MyD88 Rank (before) [6]: 2442
Sequence: LKWGDPYLCSKLRYAM

P8_MyD88 Rank (after) [13]: 488
P8_MyD88 Rank (before) [14]: 2947
Sequence: DPQDLNGFMNVCLAR

Rank (after) [1]: 937
Rank (before) [2]: 3319
Sequence: LGYQLIDWEYFVGIEN

P3_MyD88 Rank (after) [7]: 602
P3_MyD88 Rank (before) [8]: 3395
Sequence: NEWVNAWTSKANRRVG

Rank (after) [3]: 466
Rank (before) [4]: 3127
Sequence: DSVFWDLLRYSLHVTE

P3_MyD88 Rank (after) [11]: 272
P3_MyD88 Rank (before) [12]: 2936
Sequence: SWGQSFLKSPLGWLFA

P8_MyD88 Rank (after) [5]: 699
P8_MyD88 Rank (before) [6]: 2101
Sequence: YPQELVLFYELLGSLV

P8_MyD88 Rank (after) [5]: 739
P8_MyD88 Rank (before) [6]: 3407
Sequence: PDEVKRTVGLTFSLSL

Rank (after) [9]: 405
Rank (before) [10]: 3229
Sequence: SSFRQGLWRLRELSKK

P3_MyD88 Rank (after) [7]: 586
P3_MyD88 Rank (before) [8]: 2127
Sequence: EWIWDKLIYALSRNPH

P3_MyD88 Rank (after) [5]: 736
P3_MyD88 Rank (before) [6]: 2071
Sequence: DSQSSLLKGEADLVGQ

P3_MyD88 Rank (after) [11]: 238
P3_MyD88 Rank (before) [12]: 862
Sequence: YLKWAIRGFGIVCVL

Rank (after) [3]: 403
Rank (before) [4]: 1189
Sequence: LEANDSLFWDRLYY

Rank (after) [9]: 473
Rank (before) [10]: 1451
Sequence: YYLDPSHLRKQSVEFS

Population [15]: 0.00291%
Sequence: SSFREGLWRLLELSKR

P8_MyD88 Rank (after) [13]: 514
P8_MyD88 Rank (before) [14]: 2911
Sequence: DPQDLQWFYECLVSLL

Rank (after) [3]: 411
Rank (before) [4]: 2801
Sequence: DPQDLDWFYEHLFSQM

P8_MyD88 Rank (after) [7]: 625
P8_MyD88 Rank (before) [8]: 3756
Sequence: SWAVDELLQILHARELF

P8_MyD88 Rank (after) [7]: 673
P8_MyD88 Rank (before) [8]: 2739
Sequence: DPQDLDLFYERLVSMF

P8_MyD88 Rank (after) [11]: 280
P8_MyD88 Rank (before) [12]: 3302
Sequence: LGYHWRDWEYFVGLED

Rank (after) [3]: 132
Rank (before) [4]: 145
Population [16]: 0.0116%
Sequence: NFANSSWALDELWLIL

P8_MyD88 Rank (after) [13]: 497
P8_MyD88 Rank (before) [14]: 1755
Sequence: YAASPRLFGEPVKIVG

P3_MyD88 Rank (after) [11]: 222
P3_MyD88 Rank (before) [12]: 2409
Sequence: LKWGSVFLEQTALCD

P3_MyD88 Rank (after) [11]: 237
P3_MyD88 Rank (before) [12]: 3559
Sequence: NNLFNELVSKNIRTLM

Population [15]: 0.00495% and 0.00466%
Sequence: LVAQEISKKMKIFATI

Rank (after) [1]: 971
Rank (before) [2]: 2627
Sequence: DPPELDWFYERLFSLF

Population [15]: 0.00349%
Sequence: SSFRGGLWRLLELSKK

Rank (after) [9]: 144
Rank (before) [10]: 649
Sequence: EWIREQLRPALEKAGKL

Rank (after) [1]: 979
Rank (before) [2]: 2403
Sequence: DWVWVYRLPNLEGPAG

Population [15]: 0.00291%
Sequence: SSFRVGLWRLLELSKK

Population [15]: 0.00378%
Sequence: YAFTGHLHRYLVQRGV

Population [15]: 0.00378%
Sequence: NQWRNALTAAANLV

P8_MyD88 Rank (after) [11]: 283
P8_MyD88 Rank (before) [12]: 1593
Sequence: WDFASNMAQFWDRRYY

Rank (after) [1]: 1025
Rank (before) [2]: 2122
Sequence: YSQHDVLWVKNFLSHI

Rank (after) [9]: 110
Rank (before) [10]: 575
Sequence: YLKWGYPWFWSKLRYAM

P8_MyD88 Rank (after) [13]: 532
P8_MyD88 Rank (before) [14]: 1401
Sequence: WALYELLHILHARELF

P3_MyD88 Rank (after) [11]: 275
P3_MyD88 Rank (before) [12]: 3406
Sequence: NELVHVCFSNENSQVG

Population [16]: 0.00848%
Sequence: NYGSNSWALNELLEIL

Rank (after) [9]: 443
Rank (before) [10]: 3453
Sequence: NERVHVWSSKAKSLVG

Population [15]: 0.0032%
Sequence: SSFREGLWRLLELRKK

Rank (after) [3]: 172
Rank (before) [4]: 203
Sequence: DLQDVGWFLSKLSQHI
